# Earlier results as cited in patent US10973875B2, “Medical agents and uses thereof” (LOKON PHARMA AB, priority 2014, dated 2021).
# Details: patients treated with gemcitabine
smiles,measurement,value
Nc1ccn([C@@H]2O[C@H](CO)[C@@H](O)C2(F)F)c(=O)n1 [gemcitabine],"levels of TGF, Tregs and MDSCs",significantly lower levels
